Source: ChEMBL document CHEMBL1201862, “PubChem BioAssay data set” (2004)
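Where inhibition never reached the appropriate level, the endpoint shown equals the highest concentration tested. Otherwise, values were interpolated linearly from a five-concentration, 48-hour dose response in 96-well plates. GI50 = concentration required for 50% inhibition of growth.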 Activity calls are given as the source filed them. No stated cut-off is given here; in the data, active = GI50 up to about 1.1 µM and inactive = higher.

Assays:
Assay in all cases: NCI-60 cell line screen, 48 h
UACC-62 = system: UACC-62
HCT-15 = system: HCT-15
Hs-578T = system: Hs-578T
SN12C = system: SN12C
NCI-H522 = system: NCI-H522
OVCAR-8 = system: OVCAR-8
SF-295 = system: SF-295
NCI/ADR-RES = system: NCI/ADR-RES
COLO 205 = system: COLO 205
MCF7 = system: MCF7
RXF 393 = system: RXF 393
NCI-H23 = system: NCI-H23
A549 = system: A549
OVCAR-5 = system: OVCAR-5
OVCAR-4 = system: OVCAR-4
HCC 2998 = system: HCC 2998
SK-OV-3 = system: SK-OV-3
NCI-H460 = system: NCI-H460
DU-145 = system: DU-145
UACC-257 = system: UACC-257
CAKI-1 = system: CAKI-1
ACHN = system: ACHN
Malme-3M = system: Malme-3M
SR = system: SR
M14 = system: M14
SK-MEL-2 = system: SK-MEL-2
SF-539 = system: SF-539
SK-MEL-5 = system: SK-MEL-5
U-251 = system: U-251
HOP-62 = system: HOP-62
SW-620 = system: SW-620
786-0 = system: 786-0
T47D = system: T47D
HL-60 = system: HL-60
IGROV-1 = system: IGROV-1
LOX IMVI = system: LOX IMVI
SF-268 = system: SF-268
MOLT-4 = system: MOLT-4
CCRF-CEM = system: CCRF-CEM
NCI-H226 = system: NCI-H226
EKVX = system: EKVX
SNB-75 = system: SNB-75
KM12 = system: KM12
BT-549 = system: BT-549
SNB-19 = system: SNB-19
SK-MEL-28 = system: SK-MEL-28
TK-10 = system: TK-10
MDA-N = system: MDA-N
MDA-MB-231 = system: MDA-MB-231
K562 = system: K562
HCT-116 = system: HCT-116
HT-29 = system: HT-29
PC-3 = system: PC-3
UO-31 = system: UO-31
OVCAR-3 = system: OVCAR-3
RPMI-8226 = system: RPMI-8226
HOP-92 = system: HOP-92
MDA-MB-435 = system: MDA-MB-435
A498 = system: A498

With `CC1(C)CC(=O)C(Cc2ccccc2)(Cc2ccccc2)C(=O)C1` the GI50 (UACC-62) was > 100 µM (inactive), the GI50 (HCT-15) was > 100 µM and the GI50 (Hs-578T) was 29.2 µM (inactive). The GI50 (SN12C) was > 100 µM (inactive), the GI50 (NCI-H522) was > 100 µM (inactive) and the GI50 (OVCAR-8) was > 100 µM (inactive). The GI50 (SF-295) was > 100 µM (inactive), the GI50 (NCI/ADR-RES) was > 100 µM (inactive) and the GI50 (COLO 205) was > 100 µM (inactive). For the same compound, the GI50 (MCF7) was > 100 µM (inactive), the GI50 (RXF 393) was 33.8 µM (inactive) and the GI50 (NCI-H23) was > 100 µM (inactive). The GI50 (A549) was > 100 µM (inactive), the GI50 (OVCAR-5) was > 100 µM (inactive) and the GI50 (OVCAR-4) was > 100 µM (inactive). The GI50 (HCC 2998) was > 100 µM (inactive), the GI50 (SK-OV-3) was > 100 µM (inactive) and the GI50 (NCI-H460) was > 100 µM (inactive). For the same compound, the GI50 (DU-145) was > 100 µM (inactive), the GI50 (UACC-257) was > 100 µM (inactive) and the GI50 (CAKI-1) was > 100 µM (inactive). For the same compound, the GI50 (ACHN) was > 100 µM (inactive), the GI50 (Malme-3M) was > 100 µM (inactive) and the GI50 (SR) was > 100 µM (inactive). The GI50 (M14) was > 100 µM (inactive), the GI50 (SK-MEL-2) was > 100 µM (inactive) and the GI50 (SF-539) was > 100 µM (inactive). For the same compound, the GI50 (SK-MEL-5) was > 100 µM (inactive), the GI50 (U-251) was > 100 µM (inactive) and the GI50 (HOP-62) was > 100 µM (inactive). For the same compound, the GI50 (SW-620) was > 100 µM (inactive), the GI50 (786-0) was > 100 µM (inactive) and the GI50 (T47D) was > 100 µM (inactive). The GI50 (HL-60) was > 100 µM (inactive), the GI50 (IGROV-1) was > 100 µM (inactive) and the GI50 (LOX IMVI) was > 100 µM (inactive). For the same compound, the GI50 (SF-268) was > 100 µM (inactive), the GI50 (MOLT-4) was > 100 µM (inactive) and the GI50 (CCRF-CEM) was > 100 µM (inactive). For the same compound, the GI50 (NCI-H226) was > 100 µM (inactive), the GI50 (EKVX) was > 100 µM (inactive) and the GI50 (SNB-75) was 39.8 µM (inactive). For the same compound, the GI50 (KM12) was > 100 µM (inactive), the GI50 (BT-549) was > 100 µM (inactive) and the GI50 (SNB-19) was > 100 µM (inactive). The GI50 (SK-MEL-28) was > 100 µM (inactive), the GI50 (TK-10) was > 100 µM (inactive) and the GI50 (MDA-N) was > 100 µM (inactive). The GI50 (MDA-MB-231) was > 100 µM (inactive), the GI50 (K562) was > 100 µM (inactive) and the GI50 (HCT-116) was > 100 µM (inactive). The GI50 (HT-29) was > 100 µM (inactive), the GI50 (PC-3) was > 100 µM (inactive) and the GI50 (UO-31) was > 100 µM (inactive).
With `CC1(C)OC(=O)C(Cc2ccccc2)(Cc2ccccc2)C(=O)O1` the GI50 (UACC-62) was > 100 µM (inactive), the GI50 (HCT-15) was > 100 µM and the GI50 (Hs-578T) was > 100 µM (inactive). The GI50 (SN12C) was > 100 µM (inactive), the GI50 (NCI-H522) was > 100 µM (inactive) and the GI50 (OVCAR-8) was > 100 µM (inactive). For the same compound, the GI50 (SF-295) was > 100 µM (inactive), the GI50 (NCI/ADR-RES) was > 100 µM (inactive) and the GI50 (COLO 205) was > 100 µM (inactive). For the same compound, the GI50 (MCF7) was > 100 µM (inactive), the GI50 (RXF 393) was 3.58 µM (inactive) and the GI50 (NCI-H23) was > 100 µM (inactive). For the same compound, the GI50 (A549) was > 100 µM (inactive), the GI50 (OVCAR-5) was > 100 µM (inactive) and the GI50 (OVCAR-4) was > 100 µM (inactive). For the same compound, the GI50 (HCC 2998) was > 100 µM (inactive), the GI50 (SK-OV-3) was > 100 µM (inactive) and the GI50 (NCI-H460) was > 100 µM (inactive). For the same compound, the GI50 (DU-145) was > 100 µM (inactive), the GI50 (UACC-257) was > 100 µM (inactive) and the GI50 (CAKI-1) was > 100 µM (inactive). The GI50 (ACHN) was > 100 µM (inactive), the GI50 (Malme-3M) was > 100 µM (inactive) and the GI50 (SR) was > 100 µM (inactive). For the same compound, the GI50 (M14) was > 100 µM (inactive), the GI50 (SK-MEL-2) was > 100 µM (inactive) and the GI50 (SF-539) was > 100 µM (inactive). The GI50 (SK-MEL-5) was > 100 µM (inactive), the GI50 (U-251) was > 100 µM (inactive) and the GI50 (HOP-62) was > 100 µM (inactive). The GI50 (SW-620) was > 100 µM (inactive), the GI50 (786-0) was > 100 µM (inactive) and the GI50 (T47D) was > 100 µM (inactive). The GI50 (HL-60) was > 100 µM (inactive), the GI50 (IGROV-1) was > 100 µM (inactive) and the GI50 (LOX IMVI) was > 100 µM (inactive). The GI50 (SF-268) was > 100 µM (inactive), the GI50 (MOLT-4) was > 100 µM (inactive) and the GI50 (CCRF-CEM) was > 100 µM (inactive). The GI50 (NCI-H226) was > 100 µM (inactive), the GI50 (EKVX) was > 100 µM (inactive) and the GI50 (SNB-75) was > 100 µM (inactive). For the same compound, the GI50 (KM12) was > 100 µM (inactive), the GI50 (BT-549) was > 100 µM (inactive) and the GI50 (SNB-19) was > 10 µM (inactive). For the same compound, the GI50 (SK-MEL-28) was > 100 µM (inactive), the GI50 (TK-10) was > 100 µM (inactive) and the GI50 (MDA-N) was > 100 µM (inactive). The GI50 (MDA-MB-231) was > 100 µM (inactive), the GI50 (K562) was > 100 µM (inactive) and the GI50 (HCT-116) was > 100 µM (inactive). The GI50 (HT-29) was > 100 µM (inactive), the GI50 (PC-3) was > 100 µM (inactive) and the GI50 (UO-31) was > 100 µM (inactive).
In the case of `CC(=O)NC1C(OCc2ccccc2)OC(CO)C(O)C1OCC(=O)N[C@@H](C)C(=O)N[C@H](CCC(=O)NCCNc1ccc([N+](=O)[O-])c2[nH]c3ccccc3c(=O)c12)C(N)=O` (some centres undefined), the GI50 (UACC-62) was 18.7 µM (inactive), the GI50 (HCT-15) was 13.5 µM and the GI50 (Hs-578T) was 71.9 µM (inactive). For the same compound, the GI50 (SN12C) was 27.4 µM (inactive), the GI50 (NCI-H522) was 7.62 µM (inactive) and the GI50 (OVCAR-8) was 18.2 µM (inactive). For the same compound, the GI50 (OVCAR-3) was 36.7 µM (inactive), the GI50 (SF-295) was 37.4 µM (inactive) and the GI50 (NCI/ADR-RES) was 21.6 µM (inactive). For the same compound, the GI50 (COLO 205) was 15.9 µM (inactive), the GI50 (NCI-H23) was 32.3 µM (inactive) and the GI50 (OVCAR-5) was 37.2 µM (inactive). The GI50 (OVCAR-4) was 23.3 µM (inactive), the GI50 (HCC 2998) was 10.9 µM (inactive) and the GI50 (SK-OV-3) was 81.5 µM (inactive). For the same compound, the GI50 (NCI-H460) was 8.99 µM (inactive), the GI50 (DU-145) was 33.4 µM (inactive) and the GI50 (UACC-257) was 22.1 µM (inactive). For the same compound, the GI50 (RPMI-8226) was 23 µM (inactive), the GI50 (CAKI-1) was 29.9 µM (inactive) and the GI50 (ACHN) was 12.1 µM (inactive). The GI50 (Malme-3M) was 84.5 µM (inactive), the GI50 (SR) was 58.7 µM (inactive) and the GI50 (M14) was 60.3 µM (inactive). The GI50 (HOP-92) was 21.6 µM (inactive), the GI50 (SF-539) was 2.21 µM (inactive) and the GI50 (SK-MEL-5) was 24.8 µM (inactive). The GI50 (MDA-MB-435) was 22.4 µM (inactive), the GI50 (U-251) was 29.5 µM (inactive) and the GI50 (HOP-62) was 36.3 µM (inactive). The GI50 (SW-620) was 7.74 µM (inactive), the GI50 (786-0) was 18.7 µM (inactive) and the GI50 (T47D) was 57 µM (inactive). For the same compound, the GI50 (HL-60) was 54.7 µM (inactive), the GI50 (LOX IMVI) was 25.9 µM (inactive) and the GI50 (A498) was 24 µM (inactive). For the same compound, the GI50 (CCRF-CEM) was 67.6 µM (inactive), the GI50 (NCI-H226) was 12.8 µM (inactive) and the GI50 (EKVX) was 20.8 µM (inactive). For the same compound, the GI50 (SNB-75) was 22.8 µM (inactive), the GI50 (KM12) was 20.1 µM (inactive) and the GI50 (BT-549) was 20.1 µM (inactive). The GI50 (SNB-19) was 23 µM (inactive), the GI50 (SK-MEL-28) was 33.2 µM (inactive) and the GI50 (TK-10) was 15.4 µM (inactive). The GI50 (MDA-N) was 27.9 µM (inactive), the GI50 (MDA-MB-231) was 28.1 µM (inactive) and the GI50 (K562) was 58.9 µM (inactive). The GI50 (HCT-116) was 6.56 µM (inactive), the GI50 (HT-29) was 19.4 µM (inactive) and the GI50 (UO-31) was 13.8 µM (inactive).
